Test results from the supplement of paper PMC10307832.

Tests used:
Assay in all cases: relative viability (nuclei count vs DMSO), 5 days (fraction); higher = more cells survive
ABC-1 = tested on: ABC-1
How it was run: (§1)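 Cells from lung cancer lines were seeded into 1536-well plates and, one day later, dosed by pin tool. Treatments were either a single drug or a fixed dose of an anchor drug with five library-drug doses (not always all listed) in √10 steps. After 5 days, nuclei were stained in a one-step fixation (final 0.05% Triton X-100, 1% formaldehyde, 1 ug/ml Hoechst) and counted on 4× images, and relative viability is the treated-to-vehicle nuclei ratio, as the median of duplicate plates.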

IA-LM = tested on: IA-LM
How it was run: as §1

LK-2 = tested on: LK-2
How it was run: as §1

LOU-NH91 = tested on: LOU-NH91
How it was run: as §1

NCI-H1648 = tested on: NCI-H1648
How it was run: as §1

NCI-H1650 = tested on: NCI-H1650
How it was run: as §1

NCI-H1666 = tested on: NCI-H1666
How it was run: as §1

NCI-H1755 = tested on: NCI-H1755
How it was run: as §1

NCI-H2228 = tested on: NCI-H2228
How it was run: as §1

A549 = tested on: A549
How it was run: as §1

NCI-H1623 = tested on: NCI-H1623
How it was run: as §1

Question: For COCC1(CO)C(=O)C2CCN1CC2 (centres undefined) [PRIMA-1MET] + O=C(CCCCCCC(=O)Nc1ccccc1)NO [Vorinostat] (partner 1 µM), which relative viability (ABC-1; first compound 0.2 µM) is on record?
Answer: 1.01

Question: And the relative viability (ABC-1; first compound 2 µM)?
Answer: 1.09

Question: And the relative viability (ABC-1; first compound 6.325 µM)?
Answer: 1.11

Question: What about the relative viability (ABC-1; first compound 20 µM) of the same compound?
Answer: 0.262

Question: And the relative viability (IA-LM; first compound 0.2 µM)?
Answer: 0.971

Question: What about the relative viability (IA-LM; first compound 0.6325 µM) of the same compound?
Answer: 0.74

Question: What about the relative viability (IA-LM; first compound 2 µM) of the same compound?
Answer: 0.926

Question: And the relative viability (IA-LM; first compound 6.325 µM)?
Answer: 1.06

Question: What about the relative viability (IA-LM; first compound 20 µM) of the same compound?
Answer: 1.05

Question: And the relative viability (LK-2; first compound 0.2 µM)?
Answer: 0.181

Question: And the relative viability (LK-2; first compound 0.6325 µM)?
Answer: 0.255

Question: And the relative viability (LK-2; first compound 2 µM)?
Answer: 0.166

Question: What about the relative viability (LK-2; first compound 6.325 µM) of the same compound?
Answer: 0.325

Question: And the relative viability (LK-2; first compound 20 µM)?
Answer: 0.0975

Question: And the relative viability (LOU-NH91; first compound 0.2 µM)?
Answer: 0.987

Question: What about the relative viability (LOU-NH91; first compound 0.6325 µM) of the same compound?
Answer: 0.878

Question: And the relative viability (LOU-NH91; first compound 2 µM)?
Answer: 0.759

Question: And the relative viability (LOU-NH91; first compound 6.325 µM)?
Answer: 0.863

Question: What about the relative viability (LOU-NH91; first compound 20 µM) of the same compound?
Answer: 0.296

Question: And the relative viability (NCI-H1648; first compound 0.2 µM)?
Answer: 0.668

Question: What about the relative viability (NCI-H1648; first compound 2 µM) of the same compound?
Answer: 0.445

Question: And the relative viability (NCI-H1648; first compound 20 µM)?
Answer: 0.621

Question: And the relative viability (NCI-H1650; first compound 0.2 µM)?
Answer: 0.619

Question: What about the relative viability (NCI-H1650; first compound 0.6325 µM) of the same compound?
Answer: 0.403

Question: And the relative viability (NCI-H1650; first compound 2 µM)?
Answer: 0.55

Question: And the relative viability (NCI-H1650; first compound 6.325 µM)?
Answer: 0.703

Question: And the relative viability (NCI-H1650; first compound 20 µM)?
Answer: 0.406

Question: What about the relative viability (NCI-H1666; first compound 0.2 µM) of the same compound?
Answer: 1.03

Question: What about the relative viability (NCI-H1666; first compound 0.6325 µM) of the same compound?
Answer: 0.915

Question: And the relative viability (NCI-H1666; first compound 2 µM)?
Answer: 1.05

Question: What about the relative viability (NCI-H1666; first compound 6.325 µM) of the same compound?
Answer: 1.07

Question: And the relative viability (NCI-H1666; first compound 20 µM)?
Answer: 0.956

Question: And the relative viability (NCI-H1755; first compound 0.2 µM)?
Answer: 0.944

Question: What about the relative viability (NCI-H1755; first compound 0.6325 µM) of the same compound?
Answer: 0.765

Question: And the relative viability (NCI-H1755; first compound 2 µM)?
Answer: 0.721

Question: And the relative viability (NCI-H1755; first compound 6.325 µM)?
Answer: 0.748

Question: What about the relative viability (NCI-H1755; first compound 20 µM) of the same compound?
Answer: 0.663

Question: And the relative viability (NCI-H2228; first compound 0.2 µM)?
Answer: 0.792

Question: And the relative viability (NCI-H2228; first compound 0.6325 µM)?
Answer: 0.74

Question: And the relative viability (NCI-H2228; first compound 2 µM)?
Answer: 0.6

Question: And the relative viability (NCI-H2228; first compound 6.325 µM)?
Answer: 0.606

Question: And the relative viability (NCI-H2228; first compound 20 µM)?
Answer: 0.0625

Question: Which results are given for COCC1(CO)C(=O)C2CCN1CC2 (centres undefined) [PRIMA-1MET] + CC(=O)c1c(C)c2cnc(Nc3ccc(N4CCNCC4)cn3)nc2n(C2CCCC2)c1=O [Palbociclib] (partner 0.5 µM)?
Answer: relative viability (ABC-1; first compound 0.2 µM): 0.984; relative viability (ABC-1; first compound 2 µM): 0.482; relative viability (ABC-1; first compound 6.325 µM): 0.552; relative viability (ABC-1; first compound 20 µM): 0.181; relative viability (LK-2; first compound 0.2 µM): 0.814; relative viability (LK-2; first compound 0.6325 µM): 0.705; relative viability (LK-2; first compound 2 µM): 0.534; relative viability (LK-2; first compound 6.325 µM): 0.211; relative viability (LK-2; first compound 20 µM): 0.0375; relative viability (LOU-NH91; first compound 0.2 µM): 0.507; relative viability (LOU-NH91; first compound 0.6325 µM): 0.514; relative viability (LOU-NH91; first compound 2 µM): 0.54; relative viability (LOU-NH91; first compound 6.325 µM): 0.508; relative viability (LOU-NH91; first compound 20 µM): 0.452; relative viability (NCI-H1648; first compound 0.2 µM): 0.251; relative viability (NCI-H1648; first compound 2 µM): 0.283; relative viability (NCI-H1648; first compound 20 µM): 0.283; relative viability (NCI-H1650; first compound 0.2 µM): 0.322; relative viability (NCI-H1650; first compound 0.6325 µM): 0.331; relative viability (NCI-H1650; first compound 2 µM): 0.317; relative viability (NCI-H1650; first compound 6.325 µM): 0.315; relative viability (NCI-H1650; first compound 20 µM): 0.0802; relative viability (NCI-H1666; first compound 0.2 µM): 0.69; relative viability (NCI-H1666; first compound 0.6325 µM): 0.647; relative viability (NCI-H1666; first compound 2 µM): 0.614; relative viability (NCI-H1666; first compound 6.325 µM): 0.699; relative viability (NCI-H1666; first compound 20 µM): 0.695; relative viability (NCI-H1755; first compound 0.2 µM): 0.479; relative viability (NCI-H1755; first compound 0.6325 µM): 0.397; relative viability (NCI-H1755; first compound 2 µM): 0.43; relative viability (NCI-H1755; first compound 6.325 µM): 0.482; relative viability (NCI-H1755; first compound 20 µM): 0.459; relative viability (NCI-H2228; first compound 0.2 µM): 0.631; relative viability (NCI-H2228; first compound 0.6325 µM): 0.778; relative viability (NCI-H2228; first compound 2 µM): 0.742; relative viability (NCI-H2228; first compound 6.325 µM): 0.402; relative viability (NCI-H2228; first compound 20 µM): 0.0392

Question: For COCC1(CO)C(=O)C2CCN1CC2 (centres undefined) [PRIMA-1MET] + N=C(N)NC(=N)NCCc1ccccc1 [Phenformin] (partner 250 µM), which relative viability (A549; first compound 0.2 µM) is on record?
Answer: 0.165

Question: What about the relative viability (A549; first compound 0.6325 µM) of the same compound?
Answer: 0.173

Question: And the relative viability (A549; first compound 2 µM)?
Answer: 0.204

Question: What about the relative viability (A549; first compound 6.325 µM) of the same compound?
Answer: 0.148

Question: What about the relative viability (A549; first compound 20 µM) of the same compound?
Answer: 0.0121

Question: And the relative viability (ABC-1; first compound 0.2 µM)?
Answer: 0.233

Question: And the relative viability (ABC-1; first compound 0.6325 µM)?
Answer: 0.2

Question: And the relative viability (ABC-1; first compound 2 µM)?
Answer: 0.23

Question: And the relative viability (ABC-1; first compound 6.325 µM)?
Answer: 0.231

Question: What about the relative viability (ABC-1; first compound 20 µM) of the same compound?
Answer: 0.199

Question: What about the relative viability (LK-2; first compound 0.2 µM) of the same compound?
Answer: 0.45

Question: What about the relative viability (LK-2; first compound 0.6325 µM) of the same compound?
Answer: 0.41

Question: What about the relative viability (LK-2; first compound 2 µM) of the same compound?
Answer: 0.228

Question: What about the relative viability (LK-2; first compound 6.325 µM) of the same compound?
Answer: 0.14

Question: What about the relative viability (LK-2; first compound 20 µM) of the same compound?
Answer: 0.124

Question: And the relative viability (LOU-NH91; first compound 0.2 µM)?
Answer: 0.724

Question: What about the relative viability (LOU-NH91; first compound 0.6325 µM) of the same compound?
Answer: 0.667

Question: And the relative viability (LOU-NH91; first compound 2 µM)?
Answer: 0.554

Question: What about the relative viability (LOU-NH91; first compound 6.325 µM) of the same compound?
Answer: 0.712

Question: And the relative viability (LOU-NH91; first compound 20 µM)?
Answer: 0.392

Question: What about the relative viability (NCI-H1623; first compound 0.2 µM) of the same compound?
Answer: 0.522

Question: And the relative viability (NCI-H1623; first compound 0.6325 µM)?
Answer: 0.603

Question: What about the relative viability (NCI-H1623; first compound 2 µM) of the same compound?
Answer: 0.544

Question: And the relative viability (NCI-H1623; first compound 6.325 µM)?
Answer: 0.503

Question: And the relative viability (NCI-H1623; first compound 20 µM)?
Answer: 0.457

Question: And the relative viability (NCI-H1650; first compound 0.2 µM)?
Answer: 0.569

Question: And the relative viability (NCI-H1650; first compound 0.6325 µM)?
Answer: 0.443

Question: What about the relative viability (NCI-H1650; first compound 2 µM) of the same compound?
Answer: 0.453

Question: What about the relative viability (NCI-H1650; first compound 6.325 µM) of the same compound?
Answer: 0.434

Question: What about the relative viability (NCI-H1650; first compound 20 µM) of the same compound?
Answer: 0.0427

Question: And the relative viability (NCI-H1666; first compound 0.2 µM)?
Answer: 0.558

Question: What about the relative viability (NCI-H1666; first compound 0.6325 µM) of the same compound?
Answer: 0.548

Question: What about the relative viability (NCI-H1666; first compound 2 µM) of the same compound?
Answer: 0.555

Question: What about the relative viability (NCI-H1666; first compound 6.325 µM) of the same compound?
Answer: 0.634

Question: And the relative viability (NCI-H1666; first compound 20 µM)?
Answer: 0.564

Question: What about the relative viability (NCI-H1755; first compound 0.2 µM) of the same compound?
Answer: 0.613

Question: And the relative viability (NCI-H1755; first compound 0.6325 µM)?
Answer: 0.659

Question: What about the relative viability (NCI-H1755; first compound 2 µM) of the same compound?
Answer: 0.406

Question: What about the relative viability (NCI-H1755; first compound 6.325 µM) of the same compound?
Answer: 0.635

Question: And the relative viability (NCI-H1755; first compound 20 µM)?
Answer: 0.574

Question: What about the relative viability (NCI-H2228; first compound 0.2 µM) of the same compound?
Answer: 0.41

Question: What about the relative viability (NCI-H2228; first compound 0.6325 µM) of the same compound?
Answer: 0.278

Question: And the relative viability (NCI-H2228; first compound 2 µM)?
Answer: 0.336

Question: And the relative viability (NCI-H2228; first compound 6.325 µM)?
Answer: 0.213

Question: And the relative viability (NCI-H2228; first compound 20 µM)?
Answer: 0.0266
